In PubChem BioAssay AID624404 (Broad Institute, 2012):
Results filed as inconclusive are left out. Active and inactive are the calls of the source.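 The calls were made as follows: active = luciferase signal rise whose fitted curve crosses a set activity limit at or below the top valid tested dose; inconclusive = flat fit with 30 to 70% rise, or poor fit; inactive = signal falling, flat within 30%, or crossing above top dose.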

Test system: D54 LucT luciferase reporter counterscreen, luminescence, 24 h
Test: luciferase activators in glycosylation-insensitive reporter cells, dose response, counter-screen for N-linked glycosylation inhibitor project, D54 LucT cells, luminescence, cherry pick (AID 624404)

SMILES	AC35
CC(C)[n+]1ccn(C2=C([O-])c3ccccc3C(=O)/C2=N\S(=O)(=O)c2ccccc2)c1	2.37 µM
COCCCNC(=O)Cc1c(C)c2c(cc(C)c3c(C(C)(C)C)coc32)oc1=O	0.156 µM
COc1ccc(C(=O)/C=C/c2ccc(-c3ccccc3)cc2)cc1CSCC(=O)O	0.875 µM
COc1cc2c(cc1OC)C(c1cccs1)N(C(=O)c1cccc(S(=O)(=O)N(C)C)c1)CC2 (centres undefined)	0.64 µM
Cc1ccc(-c2cc(C(=O)Nc3ccncc3)c3ccccc3n2)cc1	4.3 µM
CCOC(=O)c1[nH]c(C)c(C(=O)Nc2cc(Cl)ccc2C)c1C	2.24 µM
COc1ccc(CCn2c(=N)c(C(=O)NCC3CCCO3)cc3c(=O)n4cccc(C)c4nc32)cc1OC (centres undefined)	0.154 µM
O=C(NCCc1ccccc1)C1c2ccccc2C(=O)N1Cc1cccs1 (centres undefined)	1.4 µM
COc1ccc(C(=O)/C=C/c2ccccc2)c(O)c1	0.404 µM
COc1cccc(C2=CC(c3cccs3)n3nnnc3N2)c1 (centres undefined)	0.951 µM
CCNC(=O)COc1ccc(/C=C2\COc3ccccc3C2=O)cc1OC	4.8 µM
O=C(Nc1ccccc1O)c1ccc(NC(=O)C2CC2)cc1	0.432 µM
CNC(=O)c1cccc(NC(=O)c2ccccc2OCc2ccccc2)c1	0.454 µM
Cc1ccc(-c2cc(C(=O)N/N=C/c3c[nH]c4ccccc34)[nH]n2)cc1	0.101 µM
O=C(Nc1ccc(Cc2ccncc2)cc1)c1ccc([N+](=O)[O-])o1	2.68 µM
COC(=O)c1cn(C(=O)c2cccc3ccccc23)c2ccccc12	0.284 µM
Cc1ccc(SCC(=O)Nc2ccc(-c3nc4ccccc4[nH]3)cc2)cc1	0.337 µM
CN(C)CCCN(C(=O)c1ccc(S(=O)(=O)N2CCc3ccccc3C2)cc1)c1nc2ccc(F)cc2s1	5.39 µM
Cc1cc(NCCCn2ccnc2)n2nc(C)c(-c3ccccc3)c2n1	2.29 µM
Cn1c(=O)cc(OCCCC(=O)Nc2ccc3c(c2)OCCO3)c2ccccc21	0.353 µM
CC(=O)Nc1ccc(C(=O)N/N=C/c2ccccc2OCc2ccccc2)cc1	4.36 µM
COc1ccc(S(=O)(=O)Nc2ccc3c(c2)n(C)c(=O)n3C)cc1OC	0.104 µM
Cc1ccc(NC(=O)C(Cc2ccccc2)N2C(=O)C3C4CCC(C4)C3C2=O)cc1Cl (centres undefined)	1.68 µM
Cc1cnc2cc(Cl)c(Cl)cc2n1	5.41 µM
C=CCn1c(SCc2c(C)noc2C)nc2sc3c(c2c1=O)CCC(C)C3 (centres undefined)	0.238 µM
CC(=O)Nc1ccc(-c2ccnc3c2CC(C(=O)NCc2cccc(Cl)c2)O3)cc1 (centres undefined)	0.0576 µM
COc1cc(Nc2nc3c(N)cc(C(F)(F)F)cc3nc2-c2ccccc2)cc(OC)c1OC	3.87 µM

SMILES	AC35
Cn1cccc1/C=C1\SC(=Nc2cccc(O)c2)NC1=O	1.76 µM
COc1ccc2c(c1)C(=O)N1[C@H]3c4cc(OC)ccc4OC[C@@H]3[C@H](c3ccccc3)[C@]1(C)C(=O)N2	0.0997 µM
CC(=O)Nc1sc(NC(=O)c2ccccc2)nc1-c1cccs1	8.34 µM
Cn1c(=O)cc(OCCCC(=O)NC2CCCC2)c2ccccc21	3.24 µM
Cc1cc(C(=O)N/N=C/c2c3ccccc3cc3ccccc23)n[nH]1	0.643 µM
COc1cc2c(cc1OC)CN(c1ccc(C(F)(F)F)cn1)CC2	2.5 µM
Cc1nnc2c3ccccc3c(-c3ccccc3)nn12	0.221 µM
CN1C(=O)CSc2ccc(NC(=O)Nc3ccccn3)cc21	0.828 µM
O=C(c1ccc(CS(=O)c2ccccc2Cl)o1)N1CCN(c2ccccn2)CC1 (centres undefined)	5.64 µM
C[C@@]12C(=O)Nc3ccc(F)cc3C(=O)N1[C@H]1c3cc(Cl)ccc3OC[C@@H]1[C@@H]2c1ccccc1	1.82 µM
CCN(CC)S(=O)(=O)c1cccc(C(=O)OCC(=O)Nc2ccc3c(c2)c2ccccc2n3CC)c1	1.39 µM
COc1cccc(-c2nn(C)c3sc(C(=O)NCc4ccco4)cc23)c1	3.35 µM
O=C(NCc1ccccc1Br)c1cccc2c1C(=O)c1ccc(-c3ccc(OC(F)(F)F)cc3)cc1S2(=O)=O	0.408 µM
O=C(NC1CCCCC1)c1cccc2c1C(=O)c1ccc(-c3ccc(OC(F)(F)F)cc3)cc1S2(=O)=O	0.0312 µM
Cc1ccc(C(=O)N/C(=C\c2ccco2)C(=O)NCCc2c[nH]c3ccccc23)cc1	1.74 µM
CCOc1ccc(Nc2nc(N(C)c3ccccc3)nc(N)c2[N+](=O)[O-])cc1	0.128 µM
CCN1C(=O)CCN(C2CCCC2)c2nc(Nc3ccc(C(=O)NC4CCN(C)CC4)cc3OC)ncc21	0.226 µM
CC(=O)Nc1cccc(NC(=O)c2ccccc2OCc2ccccc2)c1	3.83 µM
CCOC(=O)c1c(C)[nH]c(-c2csc(N)n2)c1C	0.787 µM
COc1cccc(C(NC(C)=O)c2nc(-c3ccccc3OC)cs2)c1 (centres undefined)	0.0933 µM
Cc1ccc(/C=N/NC(=O)c2sccc2OCc2ccc(F)cc2)cc1	1.26 µM
O=C(c1ccc2ncsc2c1)N1CCN(c2cccc(C(F)(F)F)c2)CC1	0.629 µM
C[C@@]12C(=O)Nc3ccc(Br)cc3C(=O)N1[C@H]1c3ccccc3OC[C@@H]1[C@@H]2c1ccccc1	0.785 µM
CCN1C(=O)c2cccc3c(S(=O)(=O)Nc4ccccn4)ccc1c23	1.86 µM
COc1cc2c(cc1OC)C(c1cccs1)N(C(=O)c1cccnc1)CC2 (centres undefined)	0.438 µM
COc1ccc(C(=O)n2c(-c3ccco3)nc3ccccc32)cc1	0.934 µM
Cc1ccc(S(=O)(=O)C(NC(=O)c2ccccc2)=C(Cl)Cl)cc1	4.39 µM

SMILES	AC35
O=C(COC(=O)c1cccc(Br)c1)Nc1cccc2c1C(=O)c1ccccc1C2=O	1.15 µM
Cc1ccc2nc(-c3ccncc3)cc(C(=O)Nc3ccncc3)c2c1	0.0646 µM
O=C(Nc1cccc2ncccc12)c1ccc([N+](=O)[O-])o1	4.57 µM
Cc1ccc(C(=O)Nc2ccc(C(=O)/C=C/c3cccs3)cc2)cc1	0.709 µM
O=C(COc1ccc(/C=N/NC(=O)c2cc3ccccc3o2)cc1Br)Nc1ccccc1	0.027 µM
CCOc1ccc(/C=C/C(=O)c2ccccc2)cc1OC	1.26 µM
COc1cccc(C2=NOC(C(=O)NCc3ccc(F)cc3)C2)c1 (centres undefined)	4.17 µM
C=CCOc1ccc(/C=C2\SC(N3CCCCC3)=NC2=O)cc1	0.0089 µM
O=C(NCCCn1ccnc1)c1cc(-c2cccs2)on1	2.02 µM
C[C@@H](NC(=O)c1nc[nH]c1C(=O)N1CCN(c2ccccc2)CC1)c1ccccc1	1.83 µM
CCN(CC)c1ccc(/C=N/n2nnnc2N)c(O)c1	0.336 µM
Cc1ccc(C(=O)N/C(=C\c2cccs2)C(=O)NCCc2c[nH]c3ccccc23)cc1	1.09 µM
Cc1cc(NCCN2CCOCC2)c2ccc3ccccc3c2n1	0.0178 µM
CC(=O)Nc1ccc(CC(=O)NCCC(c2ccccc2)c2ccccc2)cc1	7.67 µM
CCn1ncc(C2=NOC(C(=O)NCc3ccccc3)C2)c1C (centres undefined)	9.54 µM
Cc1ccc(S(=O)(=O)Nc2ccc3c(c2)n(C)c(=O)n3C)cc1	0.694 µM
NC1(C(=O)O)CSSC1	3.05 µM
COc1ccc(NC(=O)c2cc(S(=O)(=O)N(C)C)ccc2N2CCCC2)cc1Cl	> 19.5 µM (inactive)
CCNc1oc(/C=C/c2ccc(OCC)cc2)nc1C#N	0.94 µM
Cc1ccc(Nc2nc(-c3sc(C)nc3C)cs2)cc1	0.0469 µM
O=S(=O)([N-]c1nc2ccccc2nc1-n1cc[n+](Cc2ccccc2)c1)c1ccccc1	0.648 µM
Cn1cccc1/C=C1\SC(=Nc2ccccc2)NC1=O	0.473 µM
COc1cc(C(=O)NC2CCN(C)CC2)ccc1Nc1ncc2c(n1)N(CCc1ccccc1)CCC(=O)N2C	0.172 µM
Nc1nc(Nc2ccccc2)sc1C(=O)c1ccccc1	0.272 µM
CSCCOC(=O)c1[nH]c2c(c1C)C(=O)CC(c1ccco1)C2 (centres undefined)	0.627 µM
